Read-outs that look alike come from different tables or passages of the source.
Target: T1, mTLR9 (Mus musculus, UniProt Q9EQU3)
T1 construct: Splenocytes isolated from male C57/BL6 mice; from tissue; host or cells: splenocytes from the spleen of male C57BL/6 mice
T1 sequence (Q9EQU3 26-1032): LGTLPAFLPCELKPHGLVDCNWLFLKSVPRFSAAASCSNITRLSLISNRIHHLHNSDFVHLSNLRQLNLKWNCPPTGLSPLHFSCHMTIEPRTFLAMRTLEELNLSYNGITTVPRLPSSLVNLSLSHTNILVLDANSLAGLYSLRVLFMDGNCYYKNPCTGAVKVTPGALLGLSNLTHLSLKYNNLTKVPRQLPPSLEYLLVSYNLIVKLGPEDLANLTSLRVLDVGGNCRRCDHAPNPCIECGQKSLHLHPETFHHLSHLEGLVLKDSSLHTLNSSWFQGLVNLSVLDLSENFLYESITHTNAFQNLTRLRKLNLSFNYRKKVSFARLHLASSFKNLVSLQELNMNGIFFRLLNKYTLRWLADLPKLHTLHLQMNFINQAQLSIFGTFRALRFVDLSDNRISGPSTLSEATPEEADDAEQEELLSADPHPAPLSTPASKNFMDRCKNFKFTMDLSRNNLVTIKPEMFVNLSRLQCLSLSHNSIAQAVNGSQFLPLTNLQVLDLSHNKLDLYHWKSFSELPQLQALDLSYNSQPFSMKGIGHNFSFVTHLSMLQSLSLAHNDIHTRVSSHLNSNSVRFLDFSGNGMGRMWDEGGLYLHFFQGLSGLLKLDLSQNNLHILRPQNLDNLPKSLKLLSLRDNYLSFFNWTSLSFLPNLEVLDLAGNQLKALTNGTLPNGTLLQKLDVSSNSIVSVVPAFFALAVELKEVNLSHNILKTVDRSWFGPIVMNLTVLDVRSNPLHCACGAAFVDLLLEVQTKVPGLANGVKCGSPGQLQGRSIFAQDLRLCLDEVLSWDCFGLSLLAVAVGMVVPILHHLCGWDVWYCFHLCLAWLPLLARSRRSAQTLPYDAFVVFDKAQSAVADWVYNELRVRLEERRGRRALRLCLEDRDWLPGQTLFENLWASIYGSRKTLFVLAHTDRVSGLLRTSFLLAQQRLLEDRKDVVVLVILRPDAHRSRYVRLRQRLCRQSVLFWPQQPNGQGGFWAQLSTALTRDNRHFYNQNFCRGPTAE
Assay: mTLR9 antagonism (IL-6 and TNF-α release assay) in mouse splenocytes, CpG ODN-2006 stimulated
Format: cell-based
Details: 1 μM, mouse splenocytes
Procedure, shortened: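 C57BL6 mouse splenocytes (0.2 million/well) pre-incubated 30 min at 37 °C with compounds (30 μM–1 nM, 0.3% DMSO), then stimulated with 1 μg/ml CpG ODN-2006 overnight at 37 °C/5% CO2. IL-6 and TNF-α in supernatant measured by ELISA; IC50 from % inhibition curves.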

[1] = IL-6 release, read-out: mTLR9 inhibitory activity (% at 1 μM), IL-6
[2] = TNF-α release, read-out: mTLR9 inhibitory activity (% at 1 μM), TNF-α

Compound	inhibition at 1 µM [1]	inhibition at 1 µM [2]
Cc1cc2[nH]c(CCCN3CCCCC3)cc2c(-c2ccc(N3CCN(C(C)C)CC3)cc2)n1 [Example C5, 4-[4-(4-isopropylpiperazin-1-yl)phenyl]-6-methyl-2-[3-(1-piperidyl)propyl]-1H-pyrrolo[3,2-c]pyridine]	94%	100%
Cc1cc2c(cc(CCCN3CCOCC3)n2C)c(-c2ccc(N3CCN(C(C)C)CC3)cc2)n1 [Example C6, 4-[3-[4-[4-(4-isopropylpiperazin-1-yl)phenyl]-1,6-dimethyl-pyrrolo[3,2-c]pyridin-2-yl]propyl]morpholine]	100%	100%
